In patent publication US6642246B1 (priority 1999, dated 2003):
pKd: −log10 of the molar value.

Target: α7 nAChR subtype (Rattus norvegicus, UniProt Q05941)
Type: binding

Chain of α7 nAChR subtype (Q05941 23-502 limits assumed): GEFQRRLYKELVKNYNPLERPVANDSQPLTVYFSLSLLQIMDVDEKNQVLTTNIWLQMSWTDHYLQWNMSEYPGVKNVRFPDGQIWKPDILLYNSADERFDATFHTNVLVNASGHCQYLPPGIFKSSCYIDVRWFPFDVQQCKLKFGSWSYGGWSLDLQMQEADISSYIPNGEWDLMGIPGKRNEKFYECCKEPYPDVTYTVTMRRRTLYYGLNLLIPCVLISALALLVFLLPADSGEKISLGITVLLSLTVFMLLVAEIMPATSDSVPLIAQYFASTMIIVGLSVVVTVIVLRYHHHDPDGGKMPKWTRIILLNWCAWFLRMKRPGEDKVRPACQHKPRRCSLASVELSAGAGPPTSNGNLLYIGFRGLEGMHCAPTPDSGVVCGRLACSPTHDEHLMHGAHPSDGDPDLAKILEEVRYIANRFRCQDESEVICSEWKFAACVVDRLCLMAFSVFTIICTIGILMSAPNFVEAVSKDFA

With ^125I-α-Bungarotoxin [^125I-α-BTX] as the substance, how does the pKd read?
The pKd was 8.78.
